Results taken from patent publication US10975084B2, “KDM5 inhibitors” (Merck Sharp & Dohme Corp., priority 2016, dated 2021).

molecular target: KDM5B (Homo sapiens (Human), UniProt Q9UGL1); assay: KDM5B TR-FRET Enzyme Activity Assay; type: biochemical; details: LANCE TR-FRET; 5 nM full-length recombinant KDM5B; ten point titration 100000 nM to 5.08 nM
Experimental: KDM5B TR-FRET Enzyme Activity Assay
KDM5B enzymatic activity was determined with the LANCE (Lanthanide Chelate Excite) TR-FRET (Time-resolved fluorescence resonance energy transfer) assay. […] To each well of a white Greiner 1536 Lumitrac 1536 well-plate, 50 nL of compound (100 fold dilution in final assay volume of 5 μL) was dispensed, followed by the addition of 4 μL of 1× assay buffer (50 mM Hepes 7.3, 0.5 mM TCEP, 0.005% Brij-35, 0.02% BSA, 50 μM Na-L-Ascorbate and 2 μM AmFe(II)Sulfate) containing 5 nM of Full-length KDM5B enzyme (recombinant protein from baculovirus-transfected Sf21 cells: full-length KDM5B; MW=176.825 kDa). Following a 30 minutes compound and enzyme incubation in a humidified chamber, each reaction was initiated by the addition of 1 μL 1× assay buffer containing […] biotinylated H3K4Me3 peptide, and 500 nM α-ketoglutarate. The final reaction in each well of 5 μL consists of 5 nM KDM5B, 500 nM biotinylated-peptide, and 500 nM α-ketoglutarate. De-methylation reactions were allowed to proceed for 60 minutes. Reactions were immediately quenched by the addition of 5 uL of 2× Lance Detection Buffer (PerkinElmer) with 0.5 mM EDTA and 2 nM of Eu-anti-H3K4Me1-2 antibody, and 30 nM of Streptavidin-conjugated Dylight 650 detection reagents. After 60 minutes incubation with detection reagents, reaction plates were read on a PerkinElmer EnVision plate reader using standard TR-FRET protocol. Briefly, excitation of donor molecules (Eu-chelate-anti-H3K4Me1-2-antibody) with a laser light source at 337 nm produces energy that can be transferred to Dylight-650 acceptor molecules if this donor:acceptor pair is within close proximity. Fluorescence intensity at both 665 nm (acceptor) and 615 nm (donor) are measured and a TR-FRET ratio calculated for each well (acceptor intensity/donor intensity). IC50 values were determined by 4 parameter robust fit of TR-FRET ratio values vs. (Log 10) compound concentrations.

KDM5B, sequence (Q9UGL1 whole entry): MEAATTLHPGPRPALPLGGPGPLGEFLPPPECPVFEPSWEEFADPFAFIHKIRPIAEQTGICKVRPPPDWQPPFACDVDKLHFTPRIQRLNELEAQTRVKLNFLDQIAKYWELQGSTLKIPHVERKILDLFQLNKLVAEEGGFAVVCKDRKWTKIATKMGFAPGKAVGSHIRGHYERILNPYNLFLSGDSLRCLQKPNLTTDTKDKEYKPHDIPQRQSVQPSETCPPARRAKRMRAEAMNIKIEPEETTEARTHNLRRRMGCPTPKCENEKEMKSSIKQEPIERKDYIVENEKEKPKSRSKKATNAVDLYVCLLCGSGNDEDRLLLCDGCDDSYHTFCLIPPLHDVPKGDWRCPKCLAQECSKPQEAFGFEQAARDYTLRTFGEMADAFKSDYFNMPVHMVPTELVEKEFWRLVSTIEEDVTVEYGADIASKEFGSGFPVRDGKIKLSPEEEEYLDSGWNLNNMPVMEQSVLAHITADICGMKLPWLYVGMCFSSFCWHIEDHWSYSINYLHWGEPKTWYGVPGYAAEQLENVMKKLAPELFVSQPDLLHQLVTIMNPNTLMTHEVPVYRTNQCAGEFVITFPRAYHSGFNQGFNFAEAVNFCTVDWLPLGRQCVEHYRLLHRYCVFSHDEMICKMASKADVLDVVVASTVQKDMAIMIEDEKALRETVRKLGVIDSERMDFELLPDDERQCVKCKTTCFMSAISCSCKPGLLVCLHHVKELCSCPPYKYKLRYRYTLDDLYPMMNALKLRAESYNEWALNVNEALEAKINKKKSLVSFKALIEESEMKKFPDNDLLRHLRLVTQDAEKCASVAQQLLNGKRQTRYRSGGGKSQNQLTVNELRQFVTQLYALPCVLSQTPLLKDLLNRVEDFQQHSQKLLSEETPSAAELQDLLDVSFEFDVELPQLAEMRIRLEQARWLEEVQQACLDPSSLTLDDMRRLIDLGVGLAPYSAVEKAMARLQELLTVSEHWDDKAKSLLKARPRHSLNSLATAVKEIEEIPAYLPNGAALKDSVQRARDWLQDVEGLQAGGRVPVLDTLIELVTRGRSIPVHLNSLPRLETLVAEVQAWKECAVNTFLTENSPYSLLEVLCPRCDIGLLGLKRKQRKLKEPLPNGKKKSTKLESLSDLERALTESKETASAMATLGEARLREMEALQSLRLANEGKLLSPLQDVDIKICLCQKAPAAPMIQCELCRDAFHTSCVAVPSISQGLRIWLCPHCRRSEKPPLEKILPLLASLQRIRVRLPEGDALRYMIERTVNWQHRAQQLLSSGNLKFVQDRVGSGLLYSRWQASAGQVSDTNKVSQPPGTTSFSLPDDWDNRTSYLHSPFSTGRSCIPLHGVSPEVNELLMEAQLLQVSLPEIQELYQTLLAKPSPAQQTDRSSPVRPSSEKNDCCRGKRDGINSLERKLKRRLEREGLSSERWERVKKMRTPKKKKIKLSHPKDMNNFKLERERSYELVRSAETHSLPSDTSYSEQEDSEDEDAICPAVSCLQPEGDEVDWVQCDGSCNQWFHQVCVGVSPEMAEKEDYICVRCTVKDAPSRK

Row | Compound | IC50 [µM]
1 | O=c1cc(-c2ccccc2Cl)[nH]c2ncnn12 [Example 8-27, 5-(2-chlorophenyl)[1,2,4]triazolo[1,5-a]pyrimidin-7(4H)-one] | 10.1
2 | O=c1cc(-c2ccccc2F)[nH]c2ncnn12 [Example 8-28, 5-(2-fluorophenyl)[1,2,4]triazolo[1,5-a]pyrimidin-7(4H)-one] | 5.54
3 | O=c1cc(-c2cccc(Cl)c2)[nH]c2ncnn12 [Example 8-29, 5-(3-chlorophenyl)[1,2,4]triazolo[1,5-a]pyrimidin-7(4H)-one] | 2.98
4 | O=c1cc(-c2cccc(F)c2)[nH]c2ncnn12 [Example 8-30, 5-(3-fluorophenyl)[1,2,4]triazolo[1,5-a]pyrimidin-7(4H)-one] | 2.45
5 | Cn1cc(-c2cc(=O)n3ncnc3[nH]2)cn1 [Example 8-31, 5-(1-methyl-1H-pyrazol-4-yl)[1,2,4]triazolo[1,5-a]pyrimidin-7(4H)-one] | 3.33
6 | CCCc1[nH]c2ncnn2c(=O)c1-c1ccccc1 [Example 8-32, 6-phenyl-5-propyl[1,2,4]triazolo[1,5-a]pyrimidin-7(4H)-one] | 37.6
7 | CC(C)c1cc(=O)n2ncnc2[nH]1 [Example 8-33, 5-(1-methylethyl)[1,2,4]triazolo[1,5-a]pyrimidin-7(4H)-one] | 82.3
8 | CCc1c(-c2ccccc2)[nH]c2ncnn2c1=O [Example 8-34, 6-ethyl-5-phenyl[1,2,4]triazolo[1,5-a]pyrimidin-7(4H)-one] | 0.519
9 | CC(C)c1c(-c2ccccc2)[nH]c2ncnn2c1=O [Example 8-35, 6-(1-methylethyl)-5-phenyl[1,2,4]triazolo[1,5-a]pyrimidin-7(4H)-one] | 0.271
10 | CCc1c(C)[nH]c2ncnn2c1=O [Example 8-36, 6-ethyl-5-methyl-[1,2,4]triazolo[1,5-a]pyrimidin-7(4H)-one] | 3.49
11 | CCc1c(C)[nH]c2nncn2c1=O [Example 8-37, 6-ethyl-7-methyl[1,2,4]triazolo[4,3-a]pyrimidin-5(8H)-one] | 91.7
12 | CC(C)c1c(-c2cnn(C)c2)[nH]c2ncnn2c1=O [Example 8-38, 6-(1-methylethyl)-5-(1-methyl-1H-pyrazol-4-yl)[1,2,4]triazolo[1,5-a]pyrimidin-7(4H)-one] | 0.0162
13 | CC(C)(C)n1cc(-c2[nH]c3ncnn3c(=O)c2CC(F)(F)F)cn1 [Example 8-39, 5-(1-tert-butyl-1H-pyrazol-4-yl)-6-(2,2,2-trifluoroethyl)[1,2,4]triazolo[1,5-a]pyrimidin-7(4H)-one] | 0.0871
14 | O=c1c(C2CCC2)c(-c2ccc(F)cc2)[nH]c2ncnn12 [Example 8-40, 6-cyclobutyl-5-(4-fluorophenyl)[1,2,4]triazolo[1,5-a]pyrimidin-7(4H)-one] | 1.03
15 | CC(C)n1cc(-c2[nH]c3ncnn3c(=O)c2C2CCC2)cn1 [Example 8-41, 6-cyclobutyl-5-[1-(1-methylethyl)-1H-pyrazol-4-yl][1,2,4]triazolo[1,5-a]pyrimidin-7(4H)-one] | 0.0329
16 | CC(C)(C)c1c(-c2cnn(C(C)(C)C)c2)[nH]c2ncnn2c1=O [Example 11-4, 6-tert-butyl-5-(1-tert-butyl-1H-pyrazol-4-yl)[1,2,4]triazolo[1,5-a]pyrimidin-7(4H)-one] | 0.904
17 | CC(C)(C)c1c(-c2ccc(F)cc2)[nH]c2ncnn2c1=O [Example 11-5, 6-tert-butyl-5-(4-fluorophenyl)[1,2,4]triazolo[1,5-a]pyrimidin-7(4H)-one] | 5.4
18 | Cn1cc(-c2[nH]c3ncnn3c(=O)c2C(C)(C)C)cn1 [Example 11-6, 6-tert-butyl-5-(1-methyl-1H-pyrazol-4-yl)[1,2,4]triazolo[1,5-a]pyrimidin-7(4H)-one] | 1.27
19 | CC(C)(C)c1c(-c2cnn(-c3ccccc3)c2)[nH]c2ncnn2c1=O [Example 11-7, 6-tert-butyl-5-(1-phenyl-1H-pyrazol-4-yl)[1,2,4]triazolo[1,5-a]pyrimidin-7(4H)-one] | 0.772
